Read-outs that look alike come from different tables or passages of the source.
Tests used:
[1] = target: T1, GRK2 (Homo sapiens, UniProt P25098); test: ADPGlo GRK2 Inhibition Assay (Example 8); format: biochemical; conditions: read-out: A: Enzymatic GRK2: IC50 (nM) (Example 8)
T1 construct: purchased SignalChem A14-10G
T1 sequence (P25098 1-689): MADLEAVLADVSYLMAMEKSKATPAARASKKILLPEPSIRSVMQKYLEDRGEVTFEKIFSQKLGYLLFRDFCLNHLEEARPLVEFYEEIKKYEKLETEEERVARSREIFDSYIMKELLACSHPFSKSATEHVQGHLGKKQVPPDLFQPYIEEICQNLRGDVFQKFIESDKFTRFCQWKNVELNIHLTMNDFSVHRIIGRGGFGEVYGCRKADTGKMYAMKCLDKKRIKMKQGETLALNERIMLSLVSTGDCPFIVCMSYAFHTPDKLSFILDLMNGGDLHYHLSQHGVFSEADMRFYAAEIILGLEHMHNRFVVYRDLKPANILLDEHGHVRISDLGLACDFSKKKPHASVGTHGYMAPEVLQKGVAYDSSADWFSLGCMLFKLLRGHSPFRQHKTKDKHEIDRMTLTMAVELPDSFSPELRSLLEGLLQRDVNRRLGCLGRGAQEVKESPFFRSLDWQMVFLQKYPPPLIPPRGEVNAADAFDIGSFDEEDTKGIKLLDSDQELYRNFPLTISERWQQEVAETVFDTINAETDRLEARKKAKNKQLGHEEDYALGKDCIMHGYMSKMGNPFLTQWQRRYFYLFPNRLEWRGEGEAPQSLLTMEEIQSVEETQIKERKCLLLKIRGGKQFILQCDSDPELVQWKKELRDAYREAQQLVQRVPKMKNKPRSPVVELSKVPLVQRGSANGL
Outline: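 GRK2 (15 nM 2× enzyme solution) was preincubated 15 min with compound, then reacted 180 min at room temperature with 2× mix of 20 μM ATP plus GRKtide in HEPES pH 7.5, MgCl2, Tween-20, DTT. ADP was detected by ADP-Glo luminescence. Percent inhibition was normalised to enzyme and no-enzyme controls, with dose-response curves from threefold dilutions starting at 100 μM.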

[2] = tested on: PAXF1657 control empty vector cell line; test: 7-day proliferation assay, PAXF1657 control empty vector cell line (Example 9); format: cell-based; conditions: 168 h; Cell Line: PAXF1657 empty vector (EV) cell line; 7-day; read-out: C: 7-day proliferation assay: IC50 GeoMean
Outline: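 PAXF1657 pancreatic cancer cells (GRK2-overexpressing vs empty vector; CRISPR GRK2 knockout vs non-targeting control) were seeded at 500 cells/well in RPMI1640/10% FBS, then given a 10-point series, 30 μM-0.0002 μM in 0.3% DMSO. Medium and compound were refreshed after 3 days; CellTiter-Glo luminescence was read at day 7.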

[3] = Enzyme Assay A, ADPGlo (Example 8)

SMILES	IC50 ([1]; ADPGlo GRK2 enzyme assay)	IC50 [2]	IC50 [1, 3]
COc1ccc(CNC(=O)c2cccc(NCc3nnc(-c4ccncn4)n3C)c2)cc1F	30.1 nM	6.65 µM	–
O=C(NC1CCCc2nccnc21)c1cccc(NCc2nnc(-c3ccncc3)[nH]2)c1 (centres unmarked)	–	0.736 µM	12 nM
Cn1c(CNc2cccc(C(=O)NC(c3ccccn3)C3CC3)c2)nnc1-c1ccncn1 (centres unmarked)	68.9 nM	2.63 µM	–
Cc1nc(C)c(CNC(=O)c2cccc(NCc3nnc(-c4ccncc4)[nH]3)c2)nc1C	–	> 10 µM	28 nM
O=C(N[C@H]1COCc2ccccc21)c1cccc(NCc2nnc(-c3ccncc3)n2CCO)c1	–	0.0416 µM	10.9 nM
Cn1c(CNc2cccc(C(=O)NCc3cc(S(C)(=O)=O)ccc3F)c2)nnc1-c1ccncn1	52 nM	> 16 µM	–
O=C(NCc1cnc2ccccn12)c1cccc(NCc2nnc(-c3ccncc3)n2CCO)c1	5.77 nM	> 30 µM	–
Cn1c(CNc2cccc(C(=O)NCc3cccnc3OC(F)F)c2)nnc1-c1ccncn1	16.7 nM	1.44 µM	–
Cc1noc(C)c1CNC(=O)c1cccc(NCc2nnc(-c3ccncc3)[nH]2)c1	–	> 10 µM	24 nM
Cn1c(CNc2cccc(C(=O)N[C@@H]3COCc4ccccc43)c2)nnc1-c1ccncc1F	–	> 30 µM	227 nM
C[C@@H](NC(=O)c1cccc(NCc2nnc(-c3ccncc3F)n2C)c1)c1ncccc1Cl	54.7 nM	0.135 µM	–
O=C(NCc1cnccn1)c1cccc(NCc2nnc(-c3ccncc3)[nH]2)c1	–	> 10 µM	25 nM
Cn1c(CNc2cccc(C(=O)NCc3ccccc3NS(C)(=O)=O)c2)nnc1-c1ccncn1	32.1 nM	> 30 µM	–
Cn1cc(CNC(=O)c2cccc(NCc3nnc(-c4ccncn4)n3C)c2)cn1	–	9.77 µM	36 nM
Cn1c(CNc2cccc(C(=O)NCc3ccccc3CN3CCCC3=O)c2)nnc1-c1ccncn1	–	> 10 µM	49 nM
Cn1c(CNc2cccc(C(=O)NC3COc4ccccc4C3)c2)nnc1-c1ccncn1 (centres unmarked)	68.4 nM	> 12.6 µM	–

SMILES	IC50 ([1]; ADPGlo GRK2 enzyme assay)	IC50 [2]	IC50 [1, 3]
COc1ccccc1C(C#N)NC(=O)c1cccc(NCc2nnc(-c3ccncn3)n2C)c1 (centres unmarked)	6.03 nM	0.468 µM	–
COc1cccc([C@H](C)NC(=O)c2cccc(NCc3nnc(-c4ccncc4F)n3C)c2)c1	11.6 nM	> 30 µM	–
Cn1c(CNc2cccc(C(=O)N[C@@H](CO)c3cc(F)ccc3F)c2)nnc1-c1ccncn1	–	> 30 µM	10 nM
COc1ccc(CNC(=O)c2cccc(NCc3nnc(-c4ccncn4)n3C)c2)c(OC)n1	37.2 nM	0.797 µM	–
Cn1c(CNc2cccc(C(=O)NCc3cnccc3C(F)(F)F)c2)nnc1-c1ccncn1	–	> 10 µM	39 nM
COc1cnccc1CNC(=O)c1cccc(NCc2nnc(-c3ccncc3)[nH]2)c1	–	> 10 µM	26 nM
COc1ccnc(CNC(=O)c2cccc(NCc3nnc(-c4ccncn4)n3C)c2)c1F	–	> 10 µM	200 nM
Cn1c(CNc2cccc(C(=O)NC3CCc4c(O)cccc43)c2)nnc1-c1ccncn1 (centres unmarked)	47.2 nM	8.84 µM	–
CN(C)CCNc1ccccc1CNC(=O)c1cccc(NCc2nnc(-c3ccncn3)n2C)c1	53.3 nM	> 30 µM	–
COc1cccc(F)c1CNC(=O)c1cccc(NCc2nnc(-c3ccncn3)n2C)c1	–	0.149 µM	16 nM
O=C(N[C@@H]1COc2cc(F)ccc21)c1cccc(NCc2nnc(-c3ccncc3)n2CCO)c1	–	3.13 µM	4.8 nM
CC(NC(=O)c1cccc(NCc2nnc(-c3ccncn3)n2C)c1)c1ccncc1F (centres unmarked)	–	0.103 µM	15 nM
Cc1ccnc(CNC(=O)c2cccc(NCc3nnc(-c4ccncc4)[nH]3)c2)n1	–	> 10 µM	15 nM
Cn1c(CNc2cccc(C(=O)N[C@@H](C#N)c3cc(F)ccc3F)c2)nnc1-c1ccncn1	15.7 nM	0.244 µM	–
Cc1ccc(C#N)cc1CNC(=O)c1cccc(NCc2nnc(-c3ccncn3)n2CCO)c1	3.22 nM	> 30 µM	–
